In patent US11957661B2, “JAK1 pathway inhibitors for the treatment of vitiligo” (Incyte Corporation, priority 2020, dated 2024):

Columns and labels:
[1] = biological target: human JAK1 (Homo sapiens, UniProt P23458); assay: In vitro JAK kinase assay (HTRF, Example A); type: biochemical; conditions: 1 mM ATP
Protocol: (§1) The catalytic activity of JAK1, JAK2 or JAK3 was assayed by measuring the phosphorylation of a biotinylated peptide. The phosphorylated peptide was detected by homogenous time resolved fluorescence (HTRF). […] Reactions were carried out at room temperature for 1 hour and then stopped with 20 μL 45 mM EDTA, 300 nM SA-APC, 6 nM Eu-Py20 in assay buffer (Perkin Elmer, Boston, MA). Binding to the Europium labeled antibody took place for 40 minutes and HTRF signal was measured on a Fusion plate reader (Perkin Elmer, Boston, MA).

[2] = biological target: human JAK2 (Homo sapiens (Human), UniProt O60674); assay: In vitro JAK kinase assay (HTRF, Example A); type: biochemical; conditions: JAK2/JAK1 IC50 ratio, 1 mM ATP
Chain of human JAK2 (O60674 828-1132): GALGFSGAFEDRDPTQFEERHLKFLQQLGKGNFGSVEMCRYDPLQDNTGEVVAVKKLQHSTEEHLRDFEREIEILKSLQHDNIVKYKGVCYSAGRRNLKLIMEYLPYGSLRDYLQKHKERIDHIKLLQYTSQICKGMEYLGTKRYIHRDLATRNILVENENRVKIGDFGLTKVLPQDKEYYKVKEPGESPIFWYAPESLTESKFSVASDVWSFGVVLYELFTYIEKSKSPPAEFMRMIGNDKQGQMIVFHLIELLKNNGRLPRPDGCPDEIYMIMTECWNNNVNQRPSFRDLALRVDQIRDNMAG
Protocol: as §1

| IC50 [1] | JAK2/JAK1 [2] | Compound |
| --- | --- | --- |
| < 10 nM | >10 | N#CCC(C1CCN(c2cccc(Cl)n2)C1)n1cc(-c2ncnc3[nH]ccc23)cn1 (single isomer, unassigned) [Compound 6, 3-[1-(6-chloropyridin-2-yl)pyrrolidin-3-yl]-3-[4-(7H-pyrrolo[2,3-d]pyrimidin-4-yl)-1H-pyrazol-1-yl]propanenitrile] |
| < 10 nM | >10 | N#CCC1(n2cc(-c3ncnc4[nH]ccc34)cn2)CN(C2CCN(C(=O)Nc3ccc(F)cc3C(F)(F)F)CC2)C1 [Compound 2, 4-{3-(Cyanomethyl)-3-[4-(7H-pyrrolo[2,3-d]pyrimidin-4-yl)-1H-pyrazol-1-yl]azetidin-1-yl}-N-[4-fluoro-2-(trifluoromethyl)phenyl]pipe-ridine-1-carboxamide] |
| < 10 nM | >10 | N#CCC1(n2cc(-c3ncnc4[nH]ccc34)cn2)CN(C2CCN(C(=O)c3ccnc(C(F)(F)F)n3)CC2)C1 [Compound 3, [3-[4-(7H-pyrrolo[2,3-d]pyrimidin-4-yl)-1H-pyrazol-1-yl]-1-(1-{[2-(trifluoromethyl)pyrimidin-4-yl]carbonyl}piperidin-4-yl)azetidin-3-yl]acetonitrile] |
| < 10 nM | >10 | N#CCC1(n2cc(-c3ncnc4[nH]ccc34)cn2)CN(C2CCN(C(=O)c3ccnc(C(F)(F)F)c3F)CC2)C1 [Compound 4, {1-{1-[3-Fluoro-2-(trifluoromethyl)isonicotinoyl]piperidin-4-yl}-3-[4-(7H-pyrrolo[2,3-d]pyrimidin-4-yl)-1H-pyrazol-1-yl]azetidin-3-yl}acetonitrile] |
| < 100 nM | >10 | C[C@@H](O)c1nc2cnc3ccsc3c2n1[C@H]1CC[C@H](CC#N)OC1 [Compound 5, ((2R,5S)-5-{2-[(1R)-1-hydroxyethyl]-1H-imidazo[4,5-d]thieno[3,2-b]pyridin-1-yl}tetrahydro-2H-pyran-2-yl)acetonitrile] |
| < 10 nM | >10 | N#CCC(C1CCN(c2nc3cccnc3o2)C1)n1cc(-c2ncnc3[nH]ccc23)cn1 (centres unmarked) [Compound 7, 3-(1-[1,3]oxazolo[5,4-b]pyridin-2-ylpyrrolidin-3-yl)-3-[4-(7H-pyrrolo[2,3-d]pyrimidin-4-yl)-1H-pyrazol-1-yl]propanenitrile] |
| < 10 nM | >10 | N#CCC(CN1CCN(C(=O)c2ccc(C#N)cc2F)CC1)n1cc(-c2ncnc3[nH]ccc23)cn1 (centres unmarked) [Compound 8, 4-[(4-{3-cyano-2-[4-(7H-pyrrolo[2,3-d]pyrimidin-4-yl)-1H-pyrazol-1-yl]propyl}piperazin-1-yl)carbonyl]-3-fluorobenzonitrile] |
| < 10 nM | >10 | N#CCC(CN1CCN(C(=O)c2ccc(C#N)cc2F)CC1)n1ccc(-c2ncnc3[nH]ccc23)c1 (centres unmarked) [Compound 9, 4-[(4-{3-cyano-2-[3-(7H-pyrrolo[2,3-d]pyrimidin-4-yl)-1H-pyrrol-1-yl]propyl}piperazin-1-yl)carbonyl]-3-fluorobenzonitrile] |
| < 10 nM | >10 | N#CC[C@]1(n2cc(-c3ncnc4[nH]ccc34)cn2)C[C@H](N2CCN(C(=O)c3ccnc(C(F)(F)F)n3)CC2)C1 [Compound 10, [trans-1-[4-(7H-pyrrolo[2,3-d]pyrimidin-4-yl)-1H-pyrazol-1-yl]-3-(4-{[2-(trifluoromethyl)pyrimidin-4-yl]carbonyl}piperazin-1-yl)cyclobutyl]acetonitrile] |
| < 10 nM | >10 | N#CC[C@]1(n2cc(-c3ncnc4[nH]ccc34)cn2)C[C@H](N2CCC(Oc3cc(CN4CC(O)C4)cc(C(F)(F)F)n3)CC2)C1 [Compound 11, {trans-3-(4-{[4-[(3-hydroxyazetidin-1-yl)methyl]-6-(trifluoromethyl)pyridin-2-yl]oxy}piperidin-1-yl)-1-[4-(7H-pyrrolo[2,3-d]pyrimidin-4-yl)-1H-pyrazol-1-yl]cyclobutyl}acetonitrile] |
| < 10 nM | >10 | N#CC[C@]1(n2cc(-c3ncnc4[nH]ccc34)cn2)C[C@H](N2CCC(Oc3cc(CN4CCC[C@H]4CO)cc(C(F)(F)F)n3)CC2)C1 [Compound 12, {trans-3-(4-{[4-{[(2S)-2-(hydroxymethyl)pyrrolidin-1-yl]methyl}-6-(trifluoromethyl)pyridin-2-yl]oxy}piperidin-1-yl)-1-[4-(7H-pyrrolo[2,3-d]pyrimidin-4-yl)-1H-pyrazol-1-yl]cyclobutyl}acetonitrile] |
| < 10 nM | >10 | N#CC[C@]1(n2cc(-c3ncnc4[nH]ccc34)cn2)C[C@H](N2CCC(Oc3cc(CN4CCC[C@@H]4CO)cc(C(F)(F)F)n3)CC2)C1 [Compound 13, {trans-3-(4-{[4-{[(2R)-2-(hydroxymethyl)pyrrolidin-1-yl]methyl}-6-(trifluoromethyl)pyridin-2-yl]oxy}piperidin-1-yl)-1-[4-(7H-pyrrolo[2,3-d]pyrimidin-4-yl)-1H-pyrazol-1-yl]cyclobutyl}acetonitrile] |
| < 10 nM | >10 | C[C@H](NC(=O)c1cc(F)c(N2CC(CC#N)(n3cc(-c4ncnc5[nH]ccc45)cn3)C2)cc1F)C(F)(F)F [Compound 16, 4-{3-(cyanomethyl)-3-[4-(7H-pyrrolo[2,3-d]pyrimidin-4-yl)-1H-pyrazol-1-yl]azetidin-1-yl}-2,5-difluoro-N-[(1S)-2,2,2-trifluoro-1-methylethyl]benzamide] |
| < 10 nM | >10 | N#CCC1(n2cc(-c3ncnc4[nH]ccc34)cn2)CN([C@H]2CC[C@@H](Oc3cc(CCO)nc(C(F)(F)F)n3)CC2)C1 [Compound 18, {1-(cis-4-{[6-(2-hydroxyethyl)-2-(trifluoromethyl)pyrimidin-4-yl]oxy}cyclohexyl)-3-[4-(7H-pyrrolo[2,3-d]pyrimidin-4-yl)-1H-pyrazol-1-yl]azetidin-3-yl}acetonitrile] |
| < 10 nM | >10 | CCNCc1cc(O[C@H]2CC[C@@H](N3CC(CC#N)(n4cc(-c5ncnc6[nH]ccc56)cn4)C3)CC2)nc(C(F)(F)F)c1 [Compound 19, {1-(cis-4-{[4-[(ethylamino)methyl]-6-(trifluoromethyl)pyridin-2-yl]oxy}cyclohexyl)-3-[4-(7H-pyrrolo[2,3-d]pyrimidin-4-yl)-1H-pyrazol-1-yl]azetidin-3-yl}acetonitrile] |
| < 10 nM | >10 | CC(C)(O)c1cc(O[C@H]2CC[C@@H](N3CC(CC#N)(n4cc(-c5ncnc6[nH]ccc56)cn4)C3)CC2)nc(C(F)(F)F)c1 [Compound 20, {1-(cis-4-{[4-(1-hydroxy-1-methylethyl)-6-(trifluoromethyl)pyridin-2-yl]oxy}cyclohexyl)-3-[4-(7H-pyrrolo[2,3-d]pyrimidin-4-yl)-1H-pyrazol-1-yl]azetidin-3-yl}acetonitrile] |
| < 10 nM | >10 | N#CCC1(n2cc(-c3ncnc4[nH]ccc34)cn2)CN([C@H]2CC[C@@H](Oc3cc(CN4CC[C@@H](O)C4)cc(C(F)(F)F)n3)CC2)C1 [Compound 21, {1-(cis-4-{[4-{[(3R)-3-hydroxypyrrolidin-1-yl]methyl}-6-(trifluoromethyl)pyridin-2-yl]oxy}cyclohexyl)-3-[4-(7H-pyrrolo[2,3-d]pyrimidin-4-yl)-1H-pyrazol-1-yl]azetidin-3-yl}acetonitrile] |
| < 10 nM | >10 | N#CCC1(n2cc(-c3ncnc4[nH]ccc34)cn2)CN([C@H]2CC[C@@H](Oc3cc(CN4CC[C@H](O)C4)cc(C(F)(F)F)n3)CC2)C1 [Compound 22, {1-(cis-4-{[4-{[(3S)-3-hydroxypyrrolidin-1-yl]methyl}-6-(trifluoromethyl)pyridin-2-yl]oxy}cyclohexyl)-3-[4-(7H-pyrrolo[2,3-d]pyrimidin-4-yl)-1H-pyrazol-1-yl]azetidin-3-yl}acetonitrile] |
| < 10 nM | >10 | C[C@@H](CO)NCc1cc(OC2CCN([C@H]3C[C@](CC#N)(n4cc(-c5ncnc6[nH]ccc56)cn4)C3)CC2)nc(C(F)(F)F)c1 [Compound 23, {trans-3-(4-{[4-({[(1S)-2-hydroxy-1-methylethyl]amino}methyl)-6-(trifluoromethyl)pyridin-2-yl]oxy}piperidin-1-yl)-1-[4-(7H-pyrrolo[2,3-d]pyrimidin-4-yl)-1H-pyrazol-1-yl]cyclobutyl}acetonitrile] |
| < 10 nM | >10 | C[C@@H](O)CNCc1cc(OC2CCN([C@H]3C[C@](CC#N)(n4cc(-c5ncnc6[nH]ccc56)cn4)C3)CC2)nc(C(F)(F)F)c1 [Compound 24, {trans-3-(4-{[4-({[(2R)-2-hydroxypropyl]amino}meth-yl)-6-(trifluoromethyl)pyridin-2-yl]oxy}piperidin-1-yl)-1-[4-(7H-pyrrolo[2,3-d]pyrimidin-4-yl)-1H-pyrazol-1-yl]cyclobutyl}acetonitrile] |
| < 10 nM | >10 | C[C@H](O)CNCc1cc(OC2CCN([C@H]3C[C@](CC#N)(n4cc(-c5ncnc6[nH]ccc56)cn4)C3)CC2)nc(C(F)(F)F)c1 [Compound 25, {trans-3-(4-{[4-({[(2S)-2-hydroxypropyl]amino}meth-yl)-6-(trifluoromethyl)pyridin-2-yl]oxy}piperidin-1-yl)-1-[4-(7H-pyrrolo[2,3-d]pyrimidin-4-yl)-1H-pyrazol-1-yl]cyclobutyl}acetonitrile] |
| < 10 nM | >10 | N#CC[C@]1(n2cc(-c3ncnc4[nH]ccc34)cn2)C[C@H](N2CCC(Oc3cc(CCO)cc(C(F)(F)F)n3)CC2)C1 [Compound 26, {trans-3-(4-{[4-(2-hydroxyethyl)-6-(trifluoromethyl)pyridin-2-yl]oxy}piperidin-1-yl)-1-[4-(7H-pyrrolo[2,3-d]pyrimidin-4-yl)-1H-pyrazol-1-yl]cyclobutyl}acetonitrile] |
